In patent US7705007B2, “Cis-imidazolines” (Hoffmann-La Roche Inc., priority 2006, dated 2010) one finds IC50 data, which are given here for five compounds.

Structures can show the parent of a compound that is named as a salt.

Chain of interaction between p53 and MDM2 proteins (recombinant GST-tagged MDM2 / p53 peptide) (Q00987 whole entry): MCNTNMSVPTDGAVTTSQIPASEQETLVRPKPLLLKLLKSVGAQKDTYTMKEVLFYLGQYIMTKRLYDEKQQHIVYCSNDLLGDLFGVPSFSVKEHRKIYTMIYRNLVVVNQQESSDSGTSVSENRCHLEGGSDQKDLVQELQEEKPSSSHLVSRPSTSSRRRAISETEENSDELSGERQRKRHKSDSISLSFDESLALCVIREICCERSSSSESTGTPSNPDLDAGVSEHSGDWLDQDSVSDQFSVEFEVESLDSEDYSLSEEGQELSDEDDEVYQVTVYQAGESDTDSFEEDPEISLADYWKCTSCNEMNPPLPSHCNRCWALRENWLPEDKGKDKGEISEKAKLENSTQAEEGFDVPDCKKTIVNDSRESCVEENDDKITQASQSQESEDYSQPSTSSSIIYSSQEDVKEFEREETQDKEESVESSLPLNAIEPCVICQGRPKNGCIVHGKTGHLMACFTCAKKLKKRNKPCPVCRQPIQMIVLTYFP

For the experiment, the target named is interaction between p53 and MDM2 proteins (recombinant GST-tagged MDM2 / p53 peptide) (Homo sapiens, UniProt Q00987). The experiment is described as follows: HTRF assay of inhibition of the p53-MDM2 interaction (GST-MDM2 binding to biotinylated p53 peptide). As to conditions: 90 nM biotinylated p53 peptide, 160 ng/mL GST-MDM2, 37° C. 1 h. On the procedure:
The ability of the compounds to inhibit the interaction between p53 and MDM2 proteins was measured by an HTRF (homogeneous time-resolved fluorescence) assay in which recombinant GST-tagged MDM2 binds to a peptide that resembles the MDM2-interacting region of p53 (Lane et al.). Binding of GST-MDM2 protein and p53-peptide (biotinylated on its N-terminal end) is registered by the FRET (fluorescence resonance energy transfer) between Europium (Eu)-labeled anti-GST antibody and streptavidin-conjugated Allophycocyanin (APC).
Test is performed in black flat-bottom 384-well plates (Costar) in a total volume of 40 uL containing: 90 nM biotinylate peptide, 160 ng/mL GST-MDM2, 20 nM streptavidin-APC (PerkinElmerWallac), 2 nM Eu-labeled anti-GST-antibody (PerkinElmerWallac), 0.2% bovine serum albumin (BSA), 1 mM dithiothreitol (DTT) and 20 mM Tris-borate saline (TBS) buffer as follows: Add 10 uL of GST-MDM2 (640 ng/mL working solution) in reaction buffer to each well. Add 10 uL diluted compounds (1:5 dilution in reaction buffer) to each well, mix by shaking. Add 20 uL biotinylated p53 peptide (180 nM working solution) in reaction buffer to each well and mix on shaker. Incubate at 37° C. for 1 h. Add 20 uL streptavidin-APC and Eu-anti-GST antibody mixture (6 nM Eu-anti-GST and 60 nM streptavidin-APC working solution) in TBS buffer with 0.2% BSA, shake at room temperature for 30 minutes and read using a TRF-capable plate reader at 665 and 615 nm (Victor 5, Perkin ElmerWallac). If not specified, the reagents were purchased from Sigma Chemical Co.
Background: In TR-FRET formats the signal depends on donor and acceptor labels being close together.
As for `CCOc1nc(C)ncc1C1=N[C@@H](c2ccc(Cl)cc2)[C@@H](c2ccc(Cl)cc2)N1C(=O)N1CCN(CC(=O)N(C)C)CC1` (relative stereo) [Example 17, cis-2-{4-[4,5-Bis-(4-chloro-phenyl)-2-(4-ethoxy-2-methyl-pyrimidin-5-yl)-4,5-dihydro-imidazole-1-carbonyl]-piperazin-1-yl}-N,N-dimethyl-acetamide], the IC50 (usually the midpoint of a concentration-inhibition curve) was 0.677 µM.

For the compound `CCOc1nc(C(C)(C)C)ncc1C1=N[C@@H](c2ccc(Cl)cc2)[C@@H](c2ccc(Cl)cc2)N1C(=O)N1CCNC(=O)C1` (relative stereo) [Example 20, cis-4-[2-(2-tert-Butyl-4-ethoxy-pyrimidin-5-yl)-4,5-bis-(4-chloro-phenyl)-4,5-dihydro-imidazole-1-carbonyl]-piperazin-2-one hydrochloride], the IC50 came out at 0.046 µM. The value for `CCOc1ccsc1C1=N[C@@H](c2ccc(Cl)cc2)[C@@H](c2ccc(Cl)cc2)N1C(=O)N1CCN(CC(=O)N(CCOC)CCOC)CC1` [Example 36, 2-{4-[(4S,5R)-4,5-Bis-(4-chloro-phenyl)-2-(3-ethoxy-thiophen-2-yl)-4,5-dihydro-imidazole-1-carbonyl]-piperazin-1-yl}-N,N-bis-(2-methoxy-ethyl)-acetamide] was 0.054 µM; that for `CCOc1ccsc1C1=N[C@@H](c2ccc(Cl)cc2)[C@@H](c2ccc(Cl)cc2)N1C(=O)N1CCN(CC(=O)NC(C)(C)C)CC1` [Example 34, 2-{4-[(4S,5R)-4,5-Bis-(4-chloro-phenyl)-2-(3-ethoxy-thiophen-2-yl)-4,5-dihydro-imidazole-1-carbonyl]-piperazin-1-yl}-N-tert-butyl-acetamide] was 0.11 µM; that for `CCOc1nc(C(F)(F)F)ncc1C1=N[C@@H](c2ccc(Cl)cc2)[C@@H](c2ccc(Cl)cc2)N1C(=O)N1CCN(CCS(C)(=O)=O)CC1` (relative stereo) [Example 6, cis-[4,5-Bis-(4-chloro-phenyl)-2-(4-ethoxy-2-trifluoromethyl-pyrimidin-5-yl)-4,5-dihydro-imidazol-1-yl]-[4-(2-methanesulfonyl-ethyl)-piperazin-1-yl]-methanone] was 2.89 µM.
